# Reference: patent US20090099192A1, “Substituted 1H-pyrrole-2,5-diones” (Bayer CropScience AG, priority 2004, published 2009)
# Assay: logP determination by HPLC on reversed-phase column (C 18), EEC Directive 79/831 Annex V.A8
# Assay type: physicochemical
# Conditions: reversed-phase C 18, 43° C., acid range (0.1% aqueous phosphoric acid, acetonitrile), marked a)
# Description: a) The logP values given in table 1 were determined in accordance with EEC Directive 79/831 Annex V.A8 by HPLC (High Performance Liquid Chromatography) on a reversed-phase column (C 18). Temperature: 43° C. (a) Mobile phases for the determination in the acid range: 0.1% aqueous phosphoric acid, acetonitrile; linear gradient from 10% acetonitrile to 90% acetonitrile—corresponding measurement results are marked a) in table 1. Calibration was carried out using unbranched alkan-2-ones (having 3 to 16 carbon atoms) with known logP values (determination of the logP values by the retention times using linear interpolation between two successive alkanones).
row,SMILES,logP
1,Cc1ccc(-c2ccc(Cl)cc2)cc1C1=C(O)C(=O)N(C(C)c2ccccc2Cl)C1=O (racemic) [Example 136],logP = 4.75^a)
2,"CCOC(=O)C1(N2C(=O)C(O)=C(c3ccccc3Cl)C2=O)CCC(OC)CC1 (single isomer, unassigned) [Example 149]",logP = 2.76^a)
3,"CCOC(=O)C1(N2C(=O)C(O)=C(c3ccccc3Cl)C2=O)CCC(OC)CC1 (single isomer, unassigned) [Example 151]",logP = 2.53^a)
4,Cc1cc(C)c(C2=C(OC(=O)C(C)(C)C(C)C)C(=O)N(C(C)C)C2=O)c(C)c1 [Example 20],logP = 5.87^a)
5,O=C1C(O)=C(c2ccccc2Cl)C(=O)N1C1CCCCC1 [Example 22],logP = 3.17^a)
6,CC(C)(C)C(=O)OC1=C(c2ccccc2Cl)C(=O)N(C2CCCCC2)C1=O [Example 23],logP = 5.39^a)
7,O=C1C(O)=C(c2ccccc2Cl)C(=O)N1c1ccccc1 [Example 24],logP = 2.43^a)
8,O=C1C(O)=C(c2ccccc2Cl)C(=O)N1c1ccccc1C(F)(F)F [Example 25],logP = 2.60^a)
9,O=C1C(O)=C(c2ccccc2Cl)C(=O)N1c1cccc(C(F)(F)F)c1 [Example 26],logP = 3.04^a)
10,O=C1C(O)=C(c2ccccc2Cl)C(=O)N1c1ccc(C(F)(F)F)cc1 [Example 27],logP = 3.10^a)
11,CCOc1ccc(N2C(=O)C(O)=C(c3ccccc3Cl)C2=O)nn1 [Example 29],logP = 1.82^a)
12,O=C1C(O)=C(c2cccc(C(F)(F)F)c2)C(=O)N1CC(F)(F)F [Example 38],logP = 2.70^a)
13,N#Cc1ccc(C2=C(O)C(=O)N(CC(F)(F)F)C2=O)cc1 [Example 40],logP = 1.94^a)
14,O=C1C(O)=C(c2ccc(Cl)cc2)C(=O)N1CC(F)(F)F [Example 41],logP = 2.82^a)
15,O=C1C(O)=C(c2cc(Cl)cc(Cl)c2)C(=O)N1CC(F)(F)F [Example 43],logP = 2.67^a)
16,O=C1C(O)=C(c2c(F)cccc2F)C(=O)N1CCC(F)(F)F [Example 44],logP = 2.14^a)
17,O=C1C(O)=C(c2cc(Cl)cc(Cl)c2)C(=O)N1CCC(F)(F)F [Example 49],logP = 2.94^a)
18,O=C1C(O)=C(c2c(F)cccc2F)C(=O)N1c1ccc(OC(F)(F)F)cc1 [Example 50],logP = 2.80^a)
19,O=C1C(O)=C(c2cccc(C(F)(F)F)c2)C(=O)N1c1ccc(OC(F)(F)F)cc1 [Example 53],logP = 3.75^a)
20,N#Cc1ccc(C2=C(O)C(=O)N(c3ccc(OC(F)(F)F)cc3)C2=O)cc1 [Example 54],logP = 2.70^a)
21,O=C1C(O)=C(c2ccc(Cl)cc2)C(=O)N1c1ccc(OC(F)(F)F)cc1 [Example 55],logP = 3.83^a)

row,SMILES,logP
1,O=C1C(O)=C(c2ccccc2F)C(=O)N1c1ccc(Cl)cc1 [Example 59],logP = 2.76^a)
2,O=C1C(O)=C(c2ccccc2Cl)C(=O)N1c1ccc(Cl)cc1 [Example 60],logP = 2.89^a)
3,O=C1C(O)=C(c2ccccc2F)C(=O)N1c1ccc(C(F)(F)F)cc1 [Example 67],logP = 3.01^a)
4,O=C1C(O)=C(c2cccc(C(F)(F)F)c2)C(=O)N1c1ccc(C(F)(F)F)cc1 [Example 68],logP = 3.59^a)
5,N#Cc1ccc(C2=C(O)C(=O)N(c3ccc(C(F)(F)F)cc3)C2=O)cc1 [Example 69],logP = 2.80^a)
6,O=C1C(O)=C(c2ccc(Cl)cc2)C(=O)N1c1ccc(C(F)(F)F)cc1 [Example 70],logP = 3.70^a)
7,O=C1C(O)=C(c2cc(Cl)cc(Cl)c2)C(=O)N1c1ccc(C(F)(F)F)cc1 [Example 72],logP = 3.42^a)
8,O=C1C(O)=C(c2cccc(C(F)(F)F)c2)C(=O)N1c1cc(Cl)cc(Cl)c1 [Example 75],logP = 3.78^a)
9,O=C1C(O)=C(c2ccc(C(F)(F)F)cc2)C(=O)N1c1cc(Cl)cc(Cl)c1 [Example 79],logP = 3.75^a)
10,Cc1cc(C)c(C2=C(O)C(=O)N(Cc3ccc(OC(F)(F)F)cc3)C2=O)c(C)c1 [Example 81],logP = 4.24^a)
11,O=C1C(O)=C(c2ccccc2Cl)C(=O)N1Cc1ccc(OC(F)(F)F)cc1 [Example 84],logP = 3.56^a)
12,O=C1C(O)=C(c2cccc(C(F)(F)F)c2)C(=O)N1Cc1ccc(OC(F)(F)F)cc1 [Example 85],logP = 4.15^a)
13,O=C1C(O)=C(c2ccc(OC(F)(F)F)cc2)C(=O)N1Cc1ccc(OC(F)(F)F)cc1 [Example 86],logP = 4.48^a)
14,O=C1C(O)=C(c2cccc(OC(F)(F)F)c2)C(=O)N1Cc1ccc(OC(F)(F)F)cc1 [Example 90],logP = 4.30^a)
15,O=C1C(O)=C(c2ccccc2F)C(=O)N1Cc1ccccc1F [Example 95],logP = 2.82^a)
16,O=C1C(O)=C(c2cccc(C(F)(F)F)c2)C(=O)N1Cc1ccccc1F [Example 96],logP = 3.48^a)
17,N#Cc1ccc(C2=C(O)C(=O)N(Cc3ccccc3F)C2=O)cc1 [Example 98],logP = 2.31^a)
18,O=C1C(O)=C(c2ccc(Cl)cc2)C(=O)N1Cc1ccccc1F [Example 99],logP = 3.56^a)
19,O=C1C(O)=C(c2cc(Cl)cc(Cl)c2)C(=O)N1Cc1ccccc1F [Example 102],logP = 3.48^a)
20,Cc1ccc(C2=C(O)C(=O)N(Cc3ccccc3F)C2=O)cc1 [Example 103],logP = 3.51^a)

# Further lines, results first:
row,logP,SMILES
1,logP = 4.84^a),Cc1ccc(-c2ccc(Cl)cc2)cc1C1=C(O)C(=O)N(C(C)c2cccc(Cl)c2)C1=O (racemic) [Example 141]
2,logP = 4.37^a),CC(C)(C)C(=O)OC1=C(c2ccccc2Cl)C(=O)N(c2ccccc2)C1=O [Example 28]
3,logP = 3.04^a),O=C1C(O)=C(c2ccc(OC(F)(F)F)cc2)C(=O)N1CC(F)(F)F [Example 39]
4,logP = 2.82^a),O=C1C(O)=C(c2cccc(OC(F)(F)F)c2)C(=O)N1CC(F)(F)F [Example 42]
5,logP = 3.06^a),O=C1C(O)=C(c2ccc(C(F)(F)F)cc2)C(=O)N1CCC(F)(F)F [Example 47]
6,logP = 3.30^a),O=C1C(O)=C(c2cccc(OC(F)(F)F)c2)C(=O)N1CCC(F)(F)F [Example 48]
7,logP = 3.13^a),O=C1C(O)=C(c2ccccc2F)C(=O)N1c1ccc(OC(F)(F)F)cc1 [Example 51]
8,logP = 3.27^a),O=C1C(O)=C(c2ccccc2Cl)C(=O)N1c1ccc(OC(F)(F)F)cc1 [Example 52]
9,logP = 3.56^a),O=C1C(O)=C(c2cc(Cl)cc(Cl)c2)C(=O)N1c1ccc(OC(F)(F)F)cc1 [Example 57]
10,logP = 2.45^a),O=C1C(O)=C(c2c(F)cccc2F)C(=O)N1c1ccc(Cl)cc1 [Example 58]
11,logP = 3.45^a),O=C1C(O)=C(c2cccc(C(F)(F)F)c2)C(=O)N1c1ccc(Cl)cc1 [Example 61]
12,logP = 3.80^a),O=C1C(O)=C(c2ccc(OC(F)(F)F)cc2)C(=O)N1c1ccc(Cl)cc1 [Example 62]
13,logP = 3.51^a),O=C1C(O)=C(c2ccc(Cl)cc2)C(=O)N1c1ccc(Cl)cc1 [Example 63]
14,logP = 3.35^a),O=C1C(O)=C(c2ccc(C(F)(F)F)cc2)C(=O)N1c1ccc(Cl)cc1 [Example 64]
15,logP = 3.59^a),O=C1C(O)=C(c2cccc(OC(F)(F)F)c2)C(=O)N1c1ccc(Cl)cc1 [Example 65]
16,logP = 3.48^a),O=C1C(O)=C(c2c(F)cccc2F)C(=O)N1c1ccc(C(F)(F)F)cc1 [Example 66]
17,logP = 3.75^a),O=C1C(O)=C(c2cccc(OC(F)(F)F)c2)C(=O)N1c1ccc(C(F)(F)F)cc1 [Example 71]

row,logP,SMILES
1,logP = 3.20^a),O=C1C(O)=C(c2ccccc2F)C(=O)N1c1cc(Cl)cc(Cl)c1 [Example 73]
2,logP = 4.15^a),O=C1C(O)=C(c2ccc(OC(F)(F)F)cc2)C(=O)N1c1cc(Cl)cc(Cl)c1 [Example 76]
3,logP = 2.80^a),N#Cc1ccc(C2=C(O)C(=O)N(c3cc(Cl)cc(Cl)c3)C2=O)cc1 [Example 77]
4,logP = 3.94^a),O=C1C(O)=C(c2ccc(Cl)cc2)C(=O)N1c1cc(Cl)cc(Cl)c1 [Example 78]
5,logP = 3.94^a),O=C1C(O)=C(c2cccc(OC(F)(F)F)c2)C(=O)N1c1cc(Cl)cc(Cl)c1 [Example 80]
6,logP = 3.16^a),O=C1C(O)=C(c2c(F)cccc2F)C(=O)N1Cc1ccc(OC(F)(F)F)cc1 [Example 82]
7,logP = 3.45^a),O=C1C(O)=C(c2ccccc2F)C(=O)N1Cc1ccc(OC(F)(F)F)cc1 [Example 83]
8,logP = 2.85^a),N#Cc1ccc(C2=C(O)C(=O)N(Cc3ccc(OC(F)(F)F)cc3)C2=O)cc1 [Example 87]
9,logP = 4.27^a),O=C1C(O)=C(c2ccc(Cl)cc2)C(=O)N1Cc1ccc(OC(F)(F)F)cc1 [Example 88]
10,logP = 4.03^a),O=C1C(O)=C(c2ccc(C(F)(F)F)cc2)C(=O)N1Cc1ccc(OC(F)(F)F)cc1 [Example 89]
11,logP = 4.12^a),O=C1C(O)=C(c2cc(Cl)cc(Cl)c2)C(=O)N1Cc1ccc(OC(F)(F)F)cc1 [Example 91]
12,logP = 4.27^a),Cc1ccc(C2=C(O)C(=O)N(Cc3ccc(OC(F)(F)F)cc3)C2=O)cc1 [Example 92]
13,logP = 3.51^a),Cc1cc(C)c(C2=C(O)C(=O)N(Cc3ccccc3F)C2=O)c(C)c1 [Example 93]
14,logP = 2.49^a),O=C1C(O)=C(c2c(F)cccc2F)C(=O)N1Cc1ccccc1F [Example 94]
15,logP = 3.83^a),O=C1C(O)=C(c2ccc(OC(F)(F)F)cc2)C(=O)N1Cc1ccccc1F [Example 97]
16,logP = 3.40^a),O=C1C(O)=C(c2ccc(C(F)(F)F)cc2)C(=O)N1Cc1ccccc1F [Example 100]
17,logP = 3.64^a),O=C1C(O)=C(c2cccc(OC(F)(F)F)c2)C(=O)N1Cc1ccccc1F [Example 101]
